Laboratory results as given in patent US9469616B2, “Cyclic compounds and methods of making and using the same” (Cellceutix Corporation, priority 2011, dated 2016).
Values after ≈ are worked out from the molar mass of the structure shown. Values joined by “and” are separate entries in the source; they are usually repeats but may differ in a detail not shown here. Identical values can stand only once.

Columns and labels:
[1] = tested on: S. aureus (27660); test: MIC assay (Table 1); format: cell-based; settings: Staphylococcus aureus, isolate 27660
[2] = tested on: RAW 264.7 cells; test: Cytokine production in RAW 264.7 cells (ELISA); format: cell-based, murine; settings: 5.0 μg/mL preincubation 1 hour, LPS 100 ng/mL 18 hours; FIG. 1B
[3] = tested on: K. pneumoniae (13883); test: MIC assay (Table 1); format: cell-based; settings: Klebsiella pneumoniae, isolate 13883, read-out: MIC50 K. Pnuemnoiae
Experimental: (§1) The compounds are screened for antimicrobial activity against a number of clinically relevant pathogens. Minimum Inhibitory Concentrations (MIC) of each of the compounds are determined using standard procedures for clinical ocular isolates of Ciprofloxacin Susceptible (CS) S. aureus (CSSA), Ciprofloxacin Resistant (CR) S. aureus (CRSA), CS S. epidermidis (CSSE), CR S. epidermidis (CRSE), St. pneumoniae (SP), St. viridans group (SV), Moraxella Species (MS) (including Moraxella catarrhalis), H. influenzae (HI), P. aeruginosa (PA), Serratia marcescens (SM), S. aureus fluoroquinolone-susceptible, S. aureus fluoroquinolone-resistant, S. epidermidis (Coagulase-negative Staphylococcus) fluoroquinolone-susceptible, S. epidermidis (Coagulase-negative Staphylococcus) fluoroquinolone-resistant, and Serratia marcescens.
(§2) On the day of testing, a 640 μg/m (1280 μg/m for Serratia marcescens and Pseudomonas aeruginosa) concentration is prepared from a 1% stock solution in 0.01% acetic acid, 0.2% BSA in polypropylene tubes.
(§3) Ten μl of diluted 10× test agents is added to each well of one row of the 96 well polypropylene plates from column 2 to column 12 (column 1 is a control for bacteria alone, with no peptide). […] The same peptide is in each of the 8 rows. One plate contains dilutions of one test agent and 8 bacterial isolates.
(§4) Ninety μl of the bacterial suspensions is dispensed in each well from column 1 to column 12. Each bacterial isolate is placed in one row of a 96 well polypropylene plate containing the test agents. The plates are placed on shaker at 15 minutes at room temperature, and then incubated at 37° C. overnight. MICs are determined visually as the lowest concentration of drug that inhibits visible bacterial growth.
(§5) Data is expressed as MIC50 in μg/ml. The bacterial isolates were as follows: E. coli (25922); S. aureus (27660); E. faecalis (29212); P. aeruginosa (10145); and K. pneumoniae (13883).

[4] = tested on: E. faecalis (29212); test: MIC assay (Table 1); format: cell-based; settings: Enterococcus faecalis, isolate 29212
Experimental: as §1, §2, §3, §4, §5

[5] = tested on: Staphylococcus aureus; test: Antimicrobial activity (MIC) of aryl compounds (Table 2); format: cell-based; settings: for MIC: Staphylococcus aureus, Table 2, read-out: MIC S. aureus
Description: (§6) A new series of aryl compounds was designed to evaluate the effect of charge and aromatic group hydrophobicity on the biological activity while still maintaining an amphiphilic topology. Four and six cationic charges were investigated, and three different central rings were used to tune the overall hydrophobicity: benzene, naphthalene, and phenylbenzene. The hydrophobicities of the aryl compounds were quantified using reversed-phase HPLC retention times (Rt). The antimicrobial activities (expressed as minimum inhibitory concentration (MIC)) of these compounds were tested against four pathogens, including both Gram-negative and Gram-positive bacteria, and their hemolysis (evaluated in terms of HC50, the lowest concentration that causes 50% hemolysis of red blood cells (RBCs)) was tested against human RBCs.

[6] = tested on: Escherichia coli; test: as above; format: cell-based; settings: for MIC: Escherichia coli, Table 2
Description: as §6

[7] = tested on: P. aeruginosa (10145); test: MIC assay (Table 1); format: cell-based; settings: Pseudomonas aeruginosa, isolate 10145
[8] = tested on: E. coli (25922); test: MIC assay (Table 1); format: cell-based; settings: Escherichia coli, isolate 25922
[9] = tested on: human RBCs; format: cell-based; settings: 1 h, pH 7.4
Description: as §6
Cytotoxicity of the compounds is also evaluated in a hemolysis assay using human erythrocytes. Pooled whole human blood is centrifuged to separate the red blood cells (RBC). The isolated RBCs are rinsed and diluted in Tris-buffered saline (TBS buffer, pH 7.4) to obtain a 0.22% RBC stock suspension. 5 μL of a Compound stock solution is added to 45 μL of RBC suspension and incubated with shaking for 1 hour at 37° C. At the conclusion of the incubation time, samples are centrifuged and 30 μL of the supernatant is added to 100 μL of water. OD414 measurements are read for hemoglobin concentration. The bee venom peptide melittin is used as a positive control. EC50 values are determined as described above.
Cytotoxicity is also evaluated in a hemolysis assay using isolated human erythrocytes. Pooled whole human blood is centrifuged to separate the red blood cells (RBC). The isolated RBCs are rinsed and diluted in Tris-buffered saline (TBS buffer, pH 7.4) to obtain a 0.22% RBC stock suspension. […] OD405 measurements are read for hemoglobin concentration. […] EC50 values are determined using a four parameter logistic equation: Y=Bottom+(Top−Bottom)/(1+10^((Log EC50−X)*HillSlope)).

[10] = tested on: NIH/3T3 cells; test: Cytotoxicity colorimetric assay; format: cell-based; settings: Mus musculus, NIH3T3, 1 h, one hour incubation in serum-free media
Experimental: Cytotoxicity of the compounds are evaluated in a colorimetric assay using a transformed human liver cell line (HepG2, HB-8065) and an embryonic mouse cell line (NIH/3T3 cells, CRL-1658). This assay measures the bioreduction of a novel tetrazolium compound to a soluble formazan product by viable cells. HepG2 cells are seeded in 96 well plates at 2×10^4 cells/well in MEM medium with 10% fetal bovine serum (FBS) 24 hours prior to use. NIH/3T3 cells are seeded in 96 well plates at 2×10^4 cells/well in DMEM medium with 10% bovine calf serum (BCS) 24 hours prior to use. Cell monolayers are rinsed in serum-free media and incubated for one hour with a Compound in serum-free media. After incubation, the media is replaced with serum supplemented media and live cells are measured using the Cell Titer 96 Aqueous […] Assay kit (Promega, Madison, Wis.). EC50 values are determined using a four parameter logistic equation: Y=Bottom+(Top−Bottom)/(1+10^((Log EC50−X)*HillSlope)). […] Data is expressed as EC50 in μg/ml. Cytotoxicity is evaluated in a colorimetric assay using a transformed human liver cell line (HepG2, HB-8065) and an embryonic mouse cell line (NIH/3T3 cells, CRL-1658). This assay measures the bioreduction of a novel tetrazolium compound to a soluble formazan product by viable cells. HepG2 cells are seeded in 96 well plates at 3×10^4 cells/well in MEM medium with 10% fetal bovine serum (FBS) 24 hours prior to use. NIH/3T3 cells are seeded in 96 well plates at 2×10^4 cells/well in DMEM medium with 10% bovine calf serum (BCS) 24 hours prior to use. Cell monolayers are rinsed in serum-free media and incubated for one hour with test agent in serum-free media. After incubation, the media is replaced with serum supplemented media and live cells are measured using the Cell Titer 96 Aqueous […] Assay kit (Promega, Madison, Wis.). EC50 values are determined using a four parameter logistic equation: Y=Bottom+(Top−Bottom)/(1+10^((Log EC50−X)*HillSlope)).

[11] = tested on: Escherichia coli; settings: Data from Thaker, et al., J. Med. Chem., 2011, 54, 2241; cited from earlier work
[12] = tested on: Staphylococcus aureus; settings: Data from Thaker, et al., J. Med. Chem., 2011, 54, 2241; cited from earlier work

Compound | MIC50 [1] | LPS-induced TNF production [2] | MIC50 [3] | MIC50 [4] | Selectivity (HC50/MIC) S. aureus [5] | MIC [5] | MIC [6] | Selectivity (HC50/MIC) E. coli [6] | MIC50 [7] | MIC50 [8] | HC50 [9] | EC50 [10] | MIC E. coli [11] | MIC S. aureus [12]
NCCCOc1cc(OCCCN)cc(-c2ccc3ccc(-c4cc(OCCCN)cc(OCCCN)c4)cc3c2)c1 [Compound 119] | 12.5 µg/mL (≈ 21.8 µM) | did not cause any additional increase in TNF production | 50 µg/mL (≈ 87.3 µM) | 6.25 µg/mL (≈ 10.9 µM) | 15.6 | 12.5 µg/mL (≈ 21.8 µM) | 25 µg/mL (≈ 43.6 µM) | 7.8 | 25 µg/mL (≈ 43.6 µM) | 25 µg/mL (≈ 43.6 µM) | 195 µg/mL | – | – | –
NCCCOc1cc(-c2cc(-c3ccccc3)cc(-c3cc(OCCCN)c(OCCCN)c(OCCCN)c3)c2)cc(OCCCN)c1OCCCN [Compound 115] | 12.5 µg/mL (≈ 16.8 µM) | did not cause any additional increase in TNF production | 12.5 µg/mL (≈ 16.8 µM) | > 50 µg/mL | >160 | 6.25 µg/mL (≈ 8.39 µM) | 6.25 µg/mL (≈ 8.39 µM) | >160 | 25 µg/mL (≈ 33.6 µM) | 6.25 µg/mL (≈ 8.39 µM) | >1000 µg/mL | 110 µg/mL (≈ 147 µM) | – | –
MSI-78 | – | – | – | – | – | – | – | – | – | – | – | – | 16 µg/mL and 16 to 32 µg/mL | 16 µg/mL and 8 to 16 µg/mL
